This passage reports T/C results from PubChem BioAssay AID274 (DTP/NCI, 2004).

SMILES strings stand for the structures. Several values for one entry are separate records, joined by “and”; a condition that tells them apart may be missing. Identical values can stand only once. Inconclusive results and toxic doses are left out.

The experiment deals with BDF1 mice, Lewis lung carcinoma iv, survival T/C. Kind of experiment: NCI In Vivo Anticancer Drug Screen. Data for tumor model Lewis Lung Carcinoma (intravenous) in B6D2F1 (BDF1) mice. As to conditions: endpoint: median survival time, higher = longer survival. Here is the method: The antitumor activity of compounds was measured in mice bearing transplantable tumors. Survival or tumor size were measured and the results are expressed as the measurement made in the treated group (T) divided by the measurement made in the vehicle treated control group (C). The tumor model used in this assay is Lewis Lung Carcinoma (intravenous) in B6D2F1 (BDF1) mice

Setting [1] is: dose: 6.25 mg/kg/injection, schedule: Q01DX009 (ip), vehicle: Klucel (hydroxypropylcellulose) (HPC).
Where [2] appears, read: dose: 12.5 mg/kg/injection, schedule: Q01DX009 (ip), vehicle: Klucel (hydroxypropylcellulose) (HPC).
The mark [3] stands for this setting: dose: 25.0 mg/kg/injection, schedule: Q01DX009 (ip), vehicle: Klucel (hydroxypropylcellulose) (HPC).
[4] abbreviates: dose: 50.0 mg/kg/injection, schedule: Q01DX009 (ip), vehicle: Klucel (hydroxypropylcellulose) (HPC).
The mark [5] stands for this setting: dose: 12.5 mg/kg/injection, schedule: Q01DX009 (ip), vehicle: saline with Tween-80.
Where [6] appears, read: dose: 25.0 mg/kg/injection, schedule: Q01DX009 (ip), vehicle: saline with Tween-80.
Setting [7] is: dose: 50.0 mg/kg/injection, schedule: Q01DX009 (ip), vehicle: saline with Tween-80.
The mark [8] stands for this setting: dose: 100.0 mg/kg/injection, schedule: Q01DX009 (ip), vehicle: saline with Tween-80.
[9] abbreviates: dose: 6.25 mg/kg/injection, schedule: Q01DX009 (ip), vehicle: saline with Tween-80.
Setting [10] is: dose: 200.0 mg/kg/injection, schedule: Q01DX009 (ip), vehicle: saline with Tween-80.
The mark [11] stands for this setting: dose: 100.0 mg/kg/injection, schedule: Q01DX009 (ip), vehicle: Klucel (hydroxypropylcellulose) (HPC).
Setting [12] is: dose: 400.0 mg/kg/injection, schedule: Q01DX009 (ip), vehicle: saline with Tween-80.

Regarding `CC(=O)NC(CCc1ccc(Cl)c(Cl)c1)c1cccc(O)c(=O)c1` (stereo not given), the T/C under setting [1] is 97 % of control, the T/C under setting [2] is 99 % of control, the T/C under setting [3] was 95 % of control and the T/C under setting [4] was 96 % of control.
For `CC1CCOS(=O)O1` (stereo not given), the T/C (dose: 10.0 mg/kg/injection, schedule: Q01DX009 (ip), vehicle: saline) is 100 % of control; the T/C (dose: 20.0 mg/kg/injection, schedule: Q01DX009 (ip), vehicle: saline) was 94 % of control; the T/C (dose: 40.0 mg/kg/injection, schedule: Q01DX009 (ip), vehicle: saline) was 95 % of control.
For `COc1cc(NS(C)(=O)=O)ccc1Nc1c2ccccc2nc2ccccc12`, the T/C reads like this: (dose: 3.6 mg/kg/injection, schedule: Q04DX003 (ip), vehicle: clinical formulation) 104 % of control; (dose: 6.0 mg/kg/injection, schedule: Q04DX003 (ip), vehicle: clinical formulation) 108 % of control; (dose: 16.7 mg/kg/injection, schedule: Q04DX003 (ip), vehicle: clinical formulation) 121 % of control.
Turning to `Nc1ccn(C2OC(COC(=O)C34CC5CC(CC(C5)C3)C4)C(O)C2O)c(=O)n1` (stereo not given), the T/C under setting [5] was 116 % of control.
For `O=c1n(CC2CO2)c(=O)n(CC2CO2)c(=O)n1CC1CO1` (stereo not given), the T/C (dose: 6.25 mg/kg/injection, schedule: Q01DX009 (ip), vehicle: suspension in saline) is 105 % of control and 100 % of control; the T/C (dose: 12.5 mg/kg/injection, schedule: Q01DX009 (ip), vehicle: suspension in saline) was 107 % of control and 101 % of control; the T/C (dose: 25.0 mg/kg/injection, schedule: Q01DX009 (ip), vehicle: suspension in saline) was 121 % of control and 101 % of control.
With `CCCCCCCCCCCCCCCC[N+]1(C)CCN(SN2CC[N+](C)(CCCCCCCCCCCCCCCC)CC2)CC1`, the T/C was 109 % of control under setting [6], 100 % of control under setting [7] and 104 % of control under setting [8].
As to `C=CCCC(=O)CCCC(=O)O[C@@H]1[C@@H]2[C@H](CC1(C)C)[C@H](O)[C@@]13O[C@@H]1[C@H](O)[C@@]1(CO1)[C@@]23C`, the T/C reads like this: (dose: 6.2 micrograms/kg/injection, schedule: Q01DX009 (ip), vehicle: Klucel (hydroxypropylcellulose) (HPC)) 116 % of control; (dose: 12.5 micrograms/kg/injection, schedule: Q01DX009 (ip), vehicle: Klucel (hydroxypropylcellulose) (HPC)) 120 % of control; (dose: 25.0 micrograms/kg/injection, schedule: Q01DX009 (ip), vehicle: Klucel (hydroxypropylcellulose) (HPC)) 107 % of control; (dose: 50.0 micrograms/kg/injection, schedule: Q01DX009 (ip), vehicle: Klucel (hydroxypropylcellulose) (HPC)) 112 % of control.
Regarding `Nc1nc(=S)c2ncn(C3OC(COC(=O)c4ccc(Cl)cc4)C(OC(=O)c4ccc(Cl)cc4)C3OC(=O)c3ccc(Cl)cc3)c2[nH]1` (stereo not given), the T/C is, setting by setting: (dose: 18.75 mg/kg/injection, schedule: Q01DX009 (ip), vehicle: Klucel (hydroxypropylcellulose) (HPC)) 103 % of control; (dose: 37.5 mg/kg/injection, schedule: Q01DX009 (ip), vehicle: Klucel (hydroxypropylcellulose) (HPC)) 106 % of control; (dose: 150.0 mg/kg/injection, schedule: Q01DX009 (ip), vehicle: Klucel (hydroxypropylcellulose) (HPC)) 89 % of control.
In the case of `C/C(=N\NC(N)=O)c1cccc(/C(C)=N/NC(N)=O)n1`, the T/C by setting is: under setting [9], 104 % of control; under setting [5], 100 % of control; under setting [6], 98 % of control; under setting [7], 103 % of control; under setting [8], 106 % of control.
As to `C[C@@H]1CN(C(=O)CCOS(C)(=O)=O)[C@@H](C)CN1C(=O)CCOS(C)(=O)=O`, the T/C is 93 % of control under setting [7] and 101 % of control under setting [8].
As for `CCO/C=C1\SC(=S)N(c2ccccc2C)C1=O`, the T/C reads like this: under setting [5], 96 % of control; under setting [6], 94 % of control; under setting [7], 100 % of control; under setting [8], 106 % of control; under setting [10], 99 % of control.
As to `Nc1ccn(C2OC(CO)C(O)C2O)c(=O)n1` (stereo not given), the T/C was 98 % of control (dose: 6.25 mg/kg/injection, schedule: Q01DX009 (ip), vehicle: saline); 281 % of control (dose: 30.0 mg/kg/injection, schedule: Q01DX006 (ip), vehicle: saline); 234 % of control (dose: 60.0 mg/kg/injection, schedule: Q01DX009 (ip), vehicle: saline); 121 % of control (dose: 980.0 mg/kg/injection, schedule: Q04DX003 (ip), vehicle: saline); 93 % of control (dose: 2000.0 mg/kg/injection, schedule: Q04DX003 (ip), vehicle: saline).
For `CN(C)/N=N/c1nc[nH]c1C(N)=O`, the T/C reads like this: (dose: 16.0 mg/kg/injection, schedule: Q01DX009 (ip), vehicle: Klucel (hydroxypropylcellulose) (HPC)) 102 % of control; under setting [3], 150 % of control; (dose: 32.0 mg/kg/injection, schedule: Q01DX009 (ip), vehicle: Klucel (hydroxypropylcellulose) (HPC)) 109 % of control; under setting [4], 118 % of control; (dose: 128.0 mg/kg/injection, schedule: Q01DX009 (ip), vehicle: Klucel (hydroxypropylcellulose) (HPC)) 117 % of control; (dose: 256.0 mg/kg/injection, schedule: Q01DX009 (ip), vehicle: Klucel (hydroxypropylcellulose) (HPC)) 123 % of control.
Turning to `O=C(Nc1ccc(Cl)c(Cl)c1)Nc1c(Oc2ccc(Cl)c(Cl)c2)ccc(Cl)c1S(=O)(=O)O`, the T/C (dose: 3.12 mg/kg/injection, schedule: Q01DX009 (ip), vehicle: Klucel (hydroxypropylcellulose) (HPC)) is 113 % of control; the T/C under setting [1] was 104 % of control; the T/C under setting [3] was 109 % of control; the T/C under setting [4] was 105 % of control; the T/C under setting [11] was 100 % of control.
Turning to `Oc1ccc2ccccc2c1N=Nc1ccc(F)cc1`, the T/C is 106 % of control under setting [8], 91 % of control under setting [10] and 106 % of control under setting [12].
Turning to `c1ccc(CCN2CCC(CCc3c[nH]c4ccccc34)CC2)cc1`, the T/C was 100 % of control (dose: 12.5 mg/kg/injection, schedule: Q01DX009 (ip), vehicle: saline); 104 % of control (dose: 25.0 mg/kg/injection, schedule: Q01DX009 (ip), vehicle: saline); 116 % of control (dose: 50.0 mg/kg/injection, schedule: Q01DX009 (ip), vehicle: saline).
`COC1C(CO)OC(n2cnc3c(=S)nc(N)[nH]c32)C1O` (stereo not given): the T/C was 97 % of control under setting [4] and 108 % of control under setting [11].
As for `O=C(NCCCN1CC1)C(=O)NCCCN1CC1`, the T/C runs as follows: (dose: 0.75 mg/kg/injection, schedule: Q01DX009 (ip), vehicle: saline) 110 % of control; (dose: 1.5 mg/kg/injection, schedule: Q01DX009 (ip), vehicle: saline) 114 % of control; (dose: 3.0 mg/kg/injection, schedule: Q01DX009 (ip), vehicle: saline) 120 % of control.
Consider `COC(=O)C(F)C(Br)C(=O)OC` (stereo not given), for which the T/C reads like this: (dose: 3.13 mg/kg/injection, schedule: Q01DX009 (ip), vehicle: saline with Tween-80) 95 % of control; under setting [9], 99 % of control; under setting [5], 95 % of control; under setting [6], 100 % of control; under setting [7], 104 % of control.
Turning to `CN(Cc1cnc2nc(N)nc(N)c2n1)c1c(Cl)cc(C(=O)NC(CCC(=O)O)C(=O)O)cc1Cl` (stereo not given), the T/C was 96 % of control under setting [2], 93 % of control under setting [3] and 98 % of control under setting [4].
Regarding `CC1=C(/C=C/C(C)=C/C=C/C(C)=C/CO)C(C)(C)CCC1`, the T/C (dose: 4.0 mg/kg/injection, schedule: Q01DX005 (ip), vehicle: saline with Tween-80) is 95 % of control; the T/C (dose: 8.0 mg/kg/injection, schedule: Q01DX005 (ip), vehicle: saline with Tween-80) was 95 % of control; the T/C (dose: 16.0 mg/kg/injection, schedule: Q01DX005 (ip), vehicle: saline with Tween-80) is 95 % of control; the T/C (dose: 32.0 mg/kg/injection, schedule: Q01DX005 (ip), vehicle: saline with Tween-80) was 102 % of control; the T/C (dose: 64.0 mg/kg/injection, schedule: Q01DX005 (ip), vehicle: saline with Tween-80) is 102 % of control; the T/C (dose: 128.0 mg/kg/injection, schedule: Q01DX005 (ip), vehicle: saline with Tween-80) is 98 % of control.
Take `Nc1cc(=O)[nH][nH]1`: the T/C under setting [8] is 99 % of control, the T/C under setting [10] was 91 % of control and the T/C under setting [12] is 95 % of control.
